Assay results as given in US20240225893A9, “SUSTAINED-RELEASE IMPLANTS FOR LOWERING INTRAOCULAR PRESSURE WITH EXTENDED DURATION OF EFFECT” (Allergan, Inc., priority 2017, published 2024).
Where two headings read alike, the source gives them in different places.

Assays:
[1] = Systemic pharmacokinetics after topical bimatoprost (study 6177-110); type: in vivo; settings: monkey, blood, LLOQ 0.100 ng/mL (AGN-191522)
[2] = human; topical bimatoprost 0.03% QD; cited from earlier work
[3] = Systemic pharmacokinetics after intracameral Bimatoprost SR Gen 1 (study TX09051); type: in vivo; settings: monkey; intracameral 30 μg (Gen 1)
[4] = Aqueous humor pharmacokinetics after topical bimatoprost (study PK10130); type: in vivo; settings: dog; topical bimatoprost 0.03% QD; LLOQ 0.200 ng/mL (AGN-192024)
[5] = Systemic pharmacokinetics after topical bimatoprost (study PK-98-119); type: in vivo; settings: human; topical bimatoprost 0.03% QD
[6] = Ocular pharmacokinetics after topical bimatoprost (study PK-98-003); type: in vivo; settings: monkey; topical bimatoprost 0.1% QD
[7] = test system: prostaglandin (PG) sensitive receptors; settings: cited from earlier work
[8] = Ocular pharmacokinetics after topical bimatoprost (study PK-97-032); type: in vivo; settings: monkey; topical bimatoprost 0.1% BID
[9] = Systemic pharmacokinetics after intracameral Bimatoprost SR (study TX12102); type: in vivo; settings: dogs; intracameral Bimatoprost SR 10, 15 & 20 μg; blood; LLOQ 0.025 ng/mL (AGN-192024), 0.05 ng/mL (AGN-191522)
glaucoma patients = test: Phase 1/2 prospective 24-month paired-eye clinical trial of BimSR (Example 1); type: in vivo, human; settings: month 24, topical bimatoprost solution 0.03% once a day
Method: A phase 1/2, prospective, 24-month, paired-eye clinical trial was conducted in 75 glaucoma patients with study eye baseline mean TOP of 25.2 (range 22-36) mmHg after washout. An intraocular implant having the composition as described in US Patent Publication No. 2015-0118279 as formulation 2, as described in TABLE 1 of the specification (6, 10, 15, or 20 μg dose strength) was administered intracamerally in the study eye; the fellow eye was treated with topical bimatoprost solution 0.03% once a day. Long-term TOP-lowering effect was assessed by TOP, time to additional TOP-lowering treatment, and percentage of patients without additional TOP-lowering treatment. Patients were permitted rescue topical medication or a single repeat treatment with BimSR. Results are presented for the 10 and 15 μg dose strengths of BimSR (n=21 for each) that are continuing in development.
Up to 4 and 6 months, 95.2% and 66.7% of patients, respectively, were controlled on the initial BimSR 10 or 15 μg treatment without need for rescue medication or implant retreatment. The median time to additional TOP-lowering treatment after BimSR administration was 38-39 weeks.
A single administration of BimSR 10 or 15 μg controlled TOP up to 6 months in 66.7% of patients and 23.8% of patients at 24 months.

Systemic Concentration ([1]; topical bimatoprost 0.03% QD) | Systemic Concentration ([1]; topical bimatoprost 0.1% BID) | Systemic Concentration [3] [ng/mL] | Aqueous Humor Concentration [4] | Systemic Concentration [5] [ng/mL] | Aqueous Humor Concentration [6] [ng/mL] | Tissues Concentration Cornea [6] [ng/g] | Tissues Concentration ICB [6] [ng/g] | Aqueous Humor Concentration [8] [ng/mL] | Tissues Concentration Cornea [8] [ng/g] | Tissues Concentration ICB [8] [ng/g] | Systemic Concentration [9] | Compound | Aqueous Humor Concentration [2] [ng/mL] | interaction with prostaglandin (PG) sensitive receptors [7] | mean (SD) TOP (intraocular pressure) (glaucoma patients; fellow eyes of BimSR 10 μg group) | mean (SD) TOP (intraocular pressure) (glaucoma patients; fellow eyes of BimSR 15 μg group)
BLQ^e | BLQ^e | 0.165 | 2.0 ng/mL | 2.41 | – | – | – | – | – | – | – | O=C(O)CCC/C=C\C[C@@H]1[C@@H](/C=C/[C@@H](O)CCc2ccccc2)[C@H](O)C[C@@H]1O [AGN-191522, bimatoprost acid] | 8.55 | – | – | –
0.397 ng/mL | 1.92 ng/mL | 0.280 | BLQ^d | 0.0822 | 34.5 | 558 | 797 | 13.0 | 2890 | 1369 | BLQ^a | CCNC(=O)CCC/C=C\C[C@@H]1[C@@H](/C=C/[C@@H](O)CCc2ccccc2)[C@H](O)C[C@@H]1O [AGN-192024, bimatoprost] | 2.37 | no meaningful interaction | 16.4 (2.1) mmHg | 15.4 (2.4) mmHg
